Experimental data reported in PubChem BioAssay AID330 (DTP/NCI, 2004).
Several values for one entry are separate records, joined by “and”; a condition that tells them apart may be missing. Equal entries are not always repeated. Inconclusive results and toxic doses are left out.

System: P388 leukemia ip, CD2F1 mice, survival T/C
Assay: NCI In Vivo Anticancer Drug Screen. Data for tumor model P388 Leukemia (intraperitoneal) in CD2F1 (CDF1) mice
Details: endpoint: median survival time, higher = longer survival
In short: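 Mice carrying the transplanted tumor received test compound or vehicle. Survival was recorded in each group, and the value is the treated-group measurement divided by that of the vehicle-treated control group.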

[1] = dose: 60.0 mg/kg/injection, schedule: Q01DX005 (ip), vehicle: Klucel (hydroxypropylcellulose) (HPC)
[2] = dose: 120.0 mg/kg/injection, schedule: Q01DX005 (ip), vehicle: Klucel (hydroxypropylcellulose) (HPC)
[3] = dose: 240.0 mg/kg/injection, schedule: Q01DX005 (ip), vehicle: Klucel (hydroxypropylcellulose) (HPC)
[4] = dose: 6.25 mg/kg/injection, schedule: Q01DX005 (ip), vehicle: saline
[5] = dose: 12.5 mg/kg/injection, schedule: Q01DX005 (ip), vehicle: saline
[6] = dose: 60.0 mg/kg/injection, schedule: Q01DX005 (ip), vehicle: saline with Tween-80
[7] = dose: 120.0 mg/kg/injection, schedule: Q01DX005 (ip), vehicle: saline with Tween-80
[8] = dose: 240.0 mg/kg/injection, schedule: Q01DX005 (ip), vehicle: saline with Tween-80
[9] = dose: 50.0 mg/kg/injection, schedule: Q01DX009 (ip), vehicle: Klucel (hydroxypropylcellulose) (HPC)
[10] = dose: 50.0 mg/kg/injection, schedule: Q01DX005 (ip), vehicle: saline
[11] = dose: 100.0 mg/kg/injection, schedule: Q01DX005 (ip), vehicle: saline
[12] = dose: 200.0 mg/kg/injection, schedule: Q01DX005 (ip), vehicle: saline
[13] = dose: 50.0 mg/kg/injection, schedule: Q01DX005 (ip), vehicle: saline with Tween-80
[14] = dose: 100.0 mg/kg/injection, schedule: Q01DX005 (ip), vehicle: saline with Tween-80
[15] = dose: 200.0 mg/kg/injection, schedule: Q01DX005 (ip), vehicle: saline with Tween-80

Structure (SMILES): COc1ccc2c3c1OC1CC(N4CCCC4)=C(c4c([N+](=O)[O-])cc([N+](=O)[O-])cc4[N+](=O)[O-])C4(O)C(C2)N(C)CCC314 (configuration not stated)
- T/C [1]: 94 % of control
- T/C [2]: 94 % of control
- T/C [3]: 90 % of control

Structure (SMILES): CN=C(NC)c1ccc(NC(=O)c2cc(Cl)cc(C(=O)Nc3ccc(C(=NC)NC)cc3)c2)cc1
- T/C [4]: 98 % of control
- T/C [5]: 113 % of control
- T/C (dose: 25.0 mg/kg/injection, schedule: Q01DX005 (ip), vehicle: saline): 118 % of control

Structure (SMILES): CC1(C)N=C(N/N=C/c2ccccc2)SP1(=O)NNc1ncccn1 (configuration not stated)
- T/C [1]: 101 % of control
- T/C [2]: 103 % of control

Structure (SMILES): O=C(O)c1cccc2cccc(-c3c4ccc(=O)c(O)c-4oc4c(O)c(O)ccc34)c12
- T/C (dose: 100.0 mg/kg/injection, schedule: Q01DX009 (ip), vehicle: saline with Tween-80): 109 % of control
- T/C (dose: 200.0 mg/kg/injection, schedule: Q01DX009 (ip), vehicle: saline with Tween-80): 113 % of control

Structure (SMILES): C(=N\Nc1nnc2c3cccnc3c3ccccc3c2n1)/c1ccc2c(c1)OCO2
- T/C (dose: 100.0 mg/kg/injection, schedule: Q01DX001 (ip), vehicle: saline with Tween-80): 108 % of control
- T/C (dose: 200.0 mg/kg/injection, schedule: Q01DX001 (ip), vehicle: saline with Tween-80): 104 % of control

Structure (SMILES): C=C1CC(C)(C)CN(Cc2ccc([N+](=O)[O-])cc2)C(C(=O)OC)=C1C(=O)OC
- T/C (dose: 50.0 mg/kg/injection, schedule: Q01DX005 (ip), vehicle: Klucel (hydroxypropylcellulose) (HPC)): 87 % of control
- T/C (dose: 100.0 mg/kg/injection, schedule: Q01DX005 (ip), vehicle: Klucel (hydroxypropylcellulose) (HPC)): 95 % of control
- T/C (dose: 200.0 mg/kg/injection, schedule: Q01DX005 (ip), vehicle: Klucel (hydroxypropylcellulose) (HPC)): 94 % of control

Structure (SMILES): CNc1nc(OC)nc2c1cnn2C1CCCCO1 (configuration not stated)
- T/C (dose: 100.0 mg/kg/injection, schedule: Q04DX002 (ip), vehicle: saline with Tween-80): 97 % of control
- T/C (dose: 200.0 mg/kg/injection, schedule: Q04DX002 (ip), vehicle: saline with Tween-80): 100 % of control
- T/C (dose: 400.0 mg/kg/injection, schedule: Q04DX002 (ip), vehicle: saline with Tween-80): 94 % of control

Structure (SMILES): CC(C)CNS(=O)(=O)c1ncnc2nc[nH]c12
- T/C (dose: 100.0 mg/kg/injection, schedule: Q04DX003 (ip), vehicle: saline with Tween-80): 100 % of control
- T/C (dose: 200.0 mg/kg/injection, schedule: Q04DX003 (ip), vehicle: saline with Tween-80): 87 % of control

Structure (SMILES): CCC(=O)NN1C(=O)c2ccccc2C1=O
- T/C [6]: 103 % of control
- T/C [7]: 104 % of control
- T/C [8]: 99 % of control

Structure (SMILES): Oc1ccc(C2COc3c(ccc(O)c3O)C2)cc1 (configuration not stated)
- T/C [6]: 98 % of control
- T/C [7]: 100 % of control
- T/C [8]: 101 % of control

Structure (SMILES): Cc1cccc(NC(=O)Oc2ccc(Cl)c3cccnc23)c1
- T/C [9]: 112 % of control
- T/C (dose: 100.0 mg/kg/injection, schedule: Q01DX009 (ip), vehicle: Klucel (hydroxypropylcellulose) (HPC)): 102 % of control
- T/C (dose: 200.0 mg/kg/injection, schedule: Q01DX009 (ip), vehicle: Klucel (hydroxypropylcellulose) (HPC)): 114 % of control

Structure (SMILES): O=C1NC(=O)c2ccc3c4c(ccc1c24)C(=O)NC3=O
- T/C (dose: 15.5 mg/kg/injection, schedule: Q01DX009 (ip), vehicle: saline with Tween-80): 95 % of control
- T/C (dose: 31.0 mg/kg/injection, schedule: Q01DX009 (ip), vehicle: saline with Tween-80): 95 % of control
- T/C (dose: 62.0 mg/kg/injection, schedule: Q01DX009 (ip), vehicle: saline with Tween-80): 91 % of control

Structure (SMILES): N#CC(C#N)=C(C#N)Nc1ccc(F)cc1
- T/C (dose: 30.0 mg/kg/injection, schedule: Q01DX005 (ip), vehicle: Klucel (hydroxypropylcellulose) (HPC)): 91 % of control
- T/C [1]: 90 % of control

Structure (SMILES): Cc1nnc(N)c(C#N)c1C
- T/C [10]: 95 % of control
- T/C [11]: 104 % of control
- T/C [12]: 93 % of control

Structure (SMILES): CN1CCN(Cc2ccccc2)C(C#N)C1 (configuration not stated)
- T/C (dose: 3.13 mg/kg/injection, schedule: Q01DX005 (ip), vehicle: water): 100 % of control
- T/C (dose: 6.25 mg/kg/injection, schedule: Q01DX005 (ip), vehicle: water): 95 % of control
- T/C (dose: 12.5 mg/kg/injection, schedule: Q01DX005 (ip), vehicle: water): 93 % of control
- T/C (dose: 25.0 mg/kg/injection, schedule: Q01DX005 (ip), vehicle: water): 100 % of control
- T/C (dose: 50.0 mg/kg/injection, schedule: Q01DX005 (ip), vehicle: water): 105 % of control and 112 % of control
- T/C (dose: 100.0 mg/kg/injection, schedule: Q01DX005 (ip), vehicle: water): 105 % of control

Structure (SMILES): CC1=C[P+](c2ccccc2)(c2ccccc2)C=C(c2ccccc2)O1
- T/C (dose: 3.12 mg/kg/injection, schedule: Q01DX005 (ip), vehicle: saline): 105 % of control
- T/C [4]: 122 % of control and 123 % of control
- T/C [5]: 118 % of control

Structure (SMILES): CCCCC1/C(=C/C(=O)c2ccccc2)Nc2ccccc2N1C(=O)c1ccccc1 (configuration not stated)
- T/C [1]: 97 % of control
- T/C [2]: 89 % of control
- T/C [3]: 90 % of control

Structure (SMILES): Cc1ccccc1N=Nc1ccc(N=Nc2cc(CN(C)C)c(O)c3ncccc23)c(C)c1
- T/C [13]: 102 % of control
- T/C [14]: 95 % of control
- T/C [15]: 109 % of control

Structure (SMILES): CC(O)C(=O)N(CCO)CCO (configuration not stated)
- T/C [10]: 108 % of control
- T/C [11]: 101 % of control
- T/C [12]: 104 % of control

Structure (SMILES): Nc1nc(N)c(Cl)c(Nc2cccc(Cl)c2)n1
- T/C (dose: 6.25 mg/kg/injection, schedule: Q01DX001 (ip), vehicle: saline with Tween-80): 94 % of control

Structure (SMILES): CCOc1ccc2ccc3ccc(OCC)nc3c2n1
- T/C [6]: 89 % of control
- T/C [7]: 98 % of control
- T/C [8]: 95 % of control

Structure (SMILES): CN(C/C=C/CN(C)N=O)N=O
- T/C (dose: 12.5 mg/kg/injection, schedule: Q01DX009 (ip), vehicle: Klucel (hydroxypropylcellulose) (HPC)): 116 % of control
- T/C (dose: 25.0 mg/kg/injection, schedule: Q01DX009 (ip), vehicle: Klucel (hydroxypropylcellulose) (HPC)): 118 % of control
- T/C [9]: 96 % of control

Structure (SMILES): C=C1CC2(CC3(C(C)C)CC3C2C)OC1=O (configuration not stated)
- T/C (dose: 100.0 mg/kg/injection, schedule: Q01DX001 (ip), vehicle: saline): 100 % of control
- T/C (dose: 200.0 mg/kg/injection, schedule: Q01DX001 (ip), vehicle: saline): 99 % of control
- T/C (dose: 400.0 mg/kg/injection, schedule: Q01DX001 (ip), vehicle: saline): 110 % of control

Structure (SMILES): C/C(=N\NC(=S)N1CCCCCCCCCCCC1)c1ccccn1
- T/C (dose: 6.25 mg/kg/injection, schedule: Q04DX003 (ip), vehicle: Klucel (hydroxypropylcellulose) (HPC)): 101 % of control
- T/C (dose: 12.5 mg/kg/injection, schedule: Q04DX003 (ip), vehicle: Klucel (hydroxypropylcellulose) (HPC)): 100 % of control and 102 % of control and 117 % of control
- T/C (dose: 25.0 mg/kg/injection, schedule: Q04DX003 (ip), vehicle: Klucel (hydroxypropylcellulose) (HPC)): 100 % of control and 113 % of control and 120 % of control
- T/C (dose: 50.0 mg/kg/injection, schedule: Q04DX003 (ip), vehicle: Klucel (hydroxypropylcellulose) (HPC)): 93 % of control

Structure (SMILES): Cc1[nH]c2ccccc2c1-c1cc(-c2cc(-c3c(C)[nH]c4ccccc34)on2)no1
- T/C (dose: 60.0 mg/kg/injection, schedule: Q01DX005 (ip), vehicle: Klucel + Tween-80): 97 % of control
- T/C (dose: 120.0 mg/kg/injection, schedule: Q01DX005 (ip), vehicle: Klucel + Tween-80): 100 % of control
- T/C (dose: 240.0 mg/kg/injection, schedule: Q01DX005 (ip), vehicle: Klucel + Tween-80): 103 % of control

Structure (SMILES): Nc1ccc(C(=O)NO)cc1
- T/C (dose: 25.0 mg/kg/injection, schedule: Q01DX009 (ip), vehicle: suspension in saline): 99 % of control
- T/C (dose: 50.0 mg/kg/injection, schedule: Q01DX009 (ip), vehicle: suspension in saline): 99 % of control
- T/C (dose: 100.0 mg/kg/injection, schedule: Q01DX009 (ip), vehicle: suspension in saline): 96 % of control
- T/C (dose: 200.0 mg/kg/injection, schedule: Q01DX009 (ip), vehicle: suspension in saline): 109 % of control

Structure (SMILES): O=C1CC2c3ccccc3C1c1ccccc12
- T/C [13]: 95 % of control
- T/C [14]: 94 % of control
- T/C [15]: 96 % of control

Structure (SMILES): COC(=O)C(=O)c1c(C(=O)OC)nc2[nH]n(-c3ccccc3)c(=O)c2c1-c1cccc2ccccc12
- T/C (dose: 30.0 mg/kg/injection, schedule: Q01DX005 (ip), vehicle: saline with Tween-80): 100 % of control and 110 % of control
- T/C [6]: 98 % of control and 100 % of control
- T/C [7]: 91 % of control and 94 % of control
